Laboratory results as given in PMC8221158, “Novel pyrrolizines bearing 3,4,5-trimethoxyphenyl moiety: design, synthesis, molecular docking, and biological evaluation as potential multi-target cytotoxic agents” (Journal of Enzyme Inhibition and Medicinal Chemistry, 2021).

What was measured:
[1] = tested on: MCF-7, HCT116, and A2780 cancer cell lines; assay: MTT assay, three cancer cell lines taken together (average, overall range); assay type: cell-based, human; conditions: Homo sapiens; MCF-7, HCT116, A2780; read-out: Average of the three IC50 values against the three cancer cell lines
MCF-7 = conditions: MTT, 72 h; read-out: IC50 (µM ± SD) MCF-7; cited from earlier work
A2780 = conditions: MTT, 72 h; read-out: IC50 (µM ± SD) A2780; cited from earlier work
normal MRC-5 cells = tested on: normal MRC-5 cells; parameters: method as in PMID 31655429; conditions: 72 h; read-out: IC50 (µM ± SD) MRC-5; cited from earlier work
MCF-7 cells = tested on: MCF-7 cells; parameters: method as in PMID 31655429; conditions: 1 µM, 24 h; control 17.3%; cited from earlier work
20 kinases = tested on: 20 kinases; parameters: method as in PMID 31655429; conditions: ALK1, CDK-2/cyclin A1, DYRK3, GSK3 alpha, NEK1; cited from earlier work
CDK-2 = target: T1, CDK-2 (Homo sapiens, UniProt P24941); parameters: method as in PMID 17064068; conditions: read-out: IC50 against CDK-2; cited from earlier work
T1 construct: purchased Promega, Madison, WI

Aurora A = target: T2, Aurora A (Homo sapiens, UniProt O14965); assay: Kinase profiling test; assay type: biochemical; conditions: stated as inhibition
T2 sequence (O14965 1-403): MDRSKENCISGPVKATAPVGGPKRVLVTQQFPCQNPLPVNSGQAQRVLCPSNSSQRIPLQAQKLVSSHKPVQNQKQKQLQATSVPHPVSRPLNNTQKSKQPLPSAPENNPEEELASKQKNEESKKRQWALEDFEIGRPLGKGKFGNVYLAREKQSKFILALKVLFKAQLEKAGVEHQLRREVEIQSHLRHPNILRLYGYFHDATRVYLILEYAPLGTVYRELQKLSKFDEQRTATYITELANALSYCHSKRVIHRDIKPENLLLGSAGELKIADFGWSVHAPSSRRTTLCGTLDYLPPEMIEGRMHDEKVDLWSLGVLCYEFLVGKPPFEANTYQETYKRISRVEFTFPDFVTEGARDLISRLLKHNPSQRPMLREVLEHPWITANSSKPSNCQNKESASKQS
Protocol: The test was performed using the radiolabeled ATP determination method (KINEXUS Bioinformatics Corporation, Vancouver, Canada). The test was performed following the previous reports[13]^,[20].
The three compounds were tested at the same concentration (10 μM) against the same 20 kinases used in the previous report. The test was performed by KINEXUS Bioinformatics Corporation (Vancouver, Canada), following previous reports[13]^,[20].

VEGFR-2 = tested on: VEGFR-2; parameters: method as in PMID 24890652; conditions: cited from earlier work
tubulin assembly = tested on: tubulin assembly; parameters: method as in PMID 24890652; conditions: cited from earlier work
HDAC1 = conditions: cited from earlier work
HDAC2 = conditions: cited from earlier work
HDAC3 = conditions: cited from earlier work
[2] = tested on: a panel of cancer cell lines; conditions: read-out: cytotoxic activity IC50; cited from earlier work
porcine tubulin = target: T3, porcine tubulin (Sus scrofa, UniProt P02550+P02554); assay: Tubulin polymerisation fluorescence-based assay; assay type: biochemical; conditions: 3 μM, positive control (enhancer)
T3 construct: purchased Cytoskeleton Inc., Denver, CO BK011P
T3 sequence (P02550 whole entry): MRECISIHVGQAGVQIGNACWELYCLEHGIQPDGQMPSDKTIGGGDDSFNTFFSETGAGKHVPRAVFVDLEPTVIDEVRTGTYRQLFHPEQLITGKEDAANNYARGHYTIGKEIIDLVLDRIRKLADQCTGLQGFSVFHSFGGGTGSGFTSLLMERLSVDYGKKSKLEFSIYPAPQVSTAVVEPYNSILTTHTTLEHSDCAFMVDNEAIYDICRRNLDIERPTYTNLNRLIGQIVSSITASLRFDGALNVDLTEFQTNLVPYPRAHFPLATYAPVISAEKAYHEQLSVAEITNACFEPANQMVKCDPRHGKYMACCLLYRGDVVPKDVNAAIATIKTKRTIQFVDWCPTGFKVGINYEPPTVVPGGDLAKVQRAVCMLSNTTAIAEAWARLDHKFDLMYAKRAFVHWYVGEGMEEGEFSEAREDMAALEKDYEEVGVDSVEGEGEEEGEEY
T3 sequence (P02554 whole entry): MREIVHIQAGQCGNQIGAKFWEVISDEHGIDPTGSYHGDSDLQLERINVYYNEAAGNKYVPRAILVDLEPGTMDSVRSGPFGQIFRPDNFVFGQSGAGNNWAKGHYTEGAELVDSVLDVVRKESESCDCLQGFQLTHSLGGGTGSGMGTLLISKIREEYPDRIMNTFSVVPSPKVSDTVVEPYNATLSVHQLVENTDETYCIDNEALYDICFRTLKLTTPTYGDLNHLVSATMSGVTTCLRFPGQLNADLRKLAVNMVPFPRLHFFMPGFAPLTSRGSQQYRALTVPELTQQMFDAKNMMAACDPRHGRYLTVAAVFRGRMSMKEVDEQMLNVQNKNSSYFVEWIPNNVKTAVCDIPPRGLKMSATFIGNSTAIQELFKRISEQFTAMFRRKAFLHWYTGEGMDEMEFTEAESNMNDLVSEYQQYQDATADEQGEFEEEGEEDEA
Protocol: The effect of compounds 16a,b,d on tubulin polymerisation was measured in vitro using tubulin polymerisation fluorescence-based assay (cytoskeleton, cat. BK011P, https://www.cytoskeleton.com/bk011p). The assay was performed following the previous report[22] and according to the manufacturer’s instructions. Briefly, 2 mg/mL porcine tubulin was dissolved in buffer 1 (80 mM PIPES, 2 mM MgCl2, 0.5 mM EGTA pH 6.9, 10 µM fluorescent reporter, 1 mM GTP, 15% glycerol) to a final concentration of […]. Then tubulin solution was transferred to a pre-warmed 96-well plate that contained the test compounds 16a,b,d (5 μM), paclitaxel (3 μM), CaCl2 (0.5 μM), and control buffer. The polymerisation of tubulin was monitored as fluorescence at 37 °C for 60 min. Relative fluorescence units (RFU) were determined at 360 nm for excitation and at 460 nm for emission using the Varioskan Flash spectral scanning multimode reader (Thermo Fisher Scientific, Roskilde, Denmark) at a reading speed of 1 cycle/min.
In the current study, the new compounds were designed bearing the trimethoxy phenyl moiety aiming to obtain new cytotoxic agents that can interfere with tubulin polymerisation in cancer cells. […] In this assay, light scattering by microtubules which is directly proportional to the concentration of the microtubule polymer was used as a measure of tubulin polymerisation. The study was performed using a fluorescence-based tubulin polymerisation assay kit (Cytoskeleton Inc., Denver, CO; Cat # BK011P) following the manufacturer’s instructions (https://www.cytoskeleton.com/bk011p) and according to the previous report.
Paclitaxel (3 μM) was used as a tubulin polymerisation enhancer (positive control, enhancer), while calcium chloride (CaCl2, 0.5 μM) was used as a positive control (inhibitor) as per the manufacturer’s instructions (https://www.cytoskeleton.com/pdf-storage/datasheets/bk011p.pdf). The vehicle was also used to evaluate the polymerisation when tubulin is incubated in the absence of the test compound. The effect of the selected compounds (5 μM) on tubulin polymerisation was evaluated and compared with those of the positive control. The results are represented in Figure 8.

## CC(C)C/C=N/c1c(C#N)c2n(c1C(=O)Nc1ccc(Br)cc1)CCC2 [9a]
[1]
  IC50: 0.31 µM
MCF-7
  IC50: 0.1 ± 0.05 µM
A2780
  IC50: 0.52 ± 0.02 µM
Normal MRC-5 cells
  IC50: 25.8 ± 0.73 µM
MCF-7 cells
  Cell cycle S phase %: 55.6%
20 kinases
  inhibition% over the inhibited kinases of the panel: 3–25%

## N#Cc1c(/N=C/c2ccccc2)c(C(=O)Nc2ccc(Br)cc2)n2c1CCC2 [9b]
[1]
  IC50: 2.33 µM
MCF-7
  IC50: 0.5 ± 0.15 µM
A2780
  IC50: 4.16 ± 1.27 µM
Normal MRC-5 cells
  IC50: 9 ± 0.13 µM

## Nc1n[nH]c(N)c1/N=N/c1ccc(O)cc1 [CAN508, 4-[(E)-(3,5-diamino-1H-pyrazol-4-yl)diazenyl)phenol]
CDK-2
  IC50: 3.5 µM

## Cc1ccc(NC(=O)c2ccc(CN3CCN(C)CC3)cc2)cc1Nc1nccc(-c2cccnc2)n1 [Imatinib, reference compound]
Aurora A
  inhibition at 10 µM: 38%

## COc1ccc(N(C)c2nc(C)nc3oc(C)cc23)cc1 [compound 7]
VEGFR-2
  IC50: […]
Tubulin assembly
  IC50: 0.0019 µM

## COc1cc2c(c(OC)c1OC)-c1ccc(OC)c(=O)cc1[C@@H](NCc1ccc(C(=O)Nc3ccccc3N)cc1)CC2 [compound 8]
HDAC1
  IC50: 12.5 µM
HDAC2
  IC50: 6.73 µM
HDAC3
  IC50: 11.2 µM
[2]
  IC50: 0.002 to 0.105 µM

## CC(=O)O[C@H]1C(=O)[C@@]2(C)[C@H]([C@H](OC(=O)c3ccccc3)[C@]3(O)C[C@H](OC(=O)[C@H](O)[C@@H](NC(=O)c4ccccc4)c4ccccc4)C(C)=C1C3(C)C)[C@]1(OC(C)=O)CO[C@@H]1C[C@@H]2O [paclitaxel, reference compound]
Porcine tubulin
  effect on tubulin polymerisation: eliminated the nucleation phase I and enhanced the growth phase II
